Results reported in the Kinase Knowledgebase extract (Sharma et al. 2016).

Tests used:
Test in all cases: Enzyme Assay
PIK3CA (human) = PIK3CA (human) (UniProt P42336)
PIK3CB (Human) = PIK3CB (Human) (UniProt P42338)
PIK3CD (Human) = PIK3CD (Human) (UniProt O00329)
Chain of PIK3CD (Human) (O00329 whole entry, looked up): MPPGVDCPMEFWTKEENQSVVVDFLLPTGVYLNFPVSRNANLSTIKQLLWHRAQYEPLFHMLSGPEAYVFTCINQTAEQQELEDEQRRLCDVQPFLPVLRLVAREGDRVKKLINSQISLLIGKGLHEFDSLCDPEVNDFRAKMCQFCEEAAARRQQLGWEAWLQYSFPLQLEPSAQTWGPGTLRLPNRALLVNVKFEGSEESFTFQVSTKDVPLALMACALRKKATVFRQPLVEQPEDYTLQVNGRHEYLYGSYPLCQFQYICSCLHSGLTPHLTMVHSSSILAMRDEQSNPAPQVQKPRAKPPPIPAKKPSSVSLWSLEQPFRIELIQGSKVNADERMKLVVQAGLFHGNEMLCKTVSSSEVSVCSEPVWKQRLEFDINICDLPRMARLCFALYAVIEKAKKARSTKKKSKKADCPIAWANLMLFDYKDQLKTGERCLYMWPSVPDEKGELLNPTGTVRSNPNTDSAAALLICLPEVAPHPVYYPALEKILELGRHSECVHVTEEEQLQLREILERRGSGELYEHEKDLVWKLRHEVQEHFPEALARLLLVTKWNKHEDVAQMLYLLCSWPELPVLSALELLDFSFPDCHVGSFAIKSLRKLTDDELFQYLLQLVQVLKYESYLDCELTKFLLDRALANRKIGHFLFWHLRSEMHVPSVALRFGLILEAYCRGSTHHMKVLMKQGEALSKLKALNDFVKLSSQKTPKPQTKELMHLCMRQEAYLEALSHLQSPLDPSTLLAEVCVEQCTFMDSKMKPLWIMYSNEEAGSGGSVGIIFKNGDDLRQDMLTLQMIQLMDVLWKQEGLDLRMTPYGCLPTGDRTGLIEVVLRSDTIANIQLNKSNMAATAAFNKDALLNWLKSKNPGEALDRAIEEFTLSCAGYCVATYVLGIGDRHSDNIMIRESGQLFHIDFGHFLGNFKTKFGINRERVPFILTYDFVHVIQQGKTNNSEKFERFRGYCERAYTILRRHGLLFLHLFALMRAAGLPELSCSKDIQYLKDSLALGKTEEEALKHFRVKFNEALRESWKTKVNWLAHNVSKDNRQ

Chain of PIK3CB (Human) (P42338 whole entry, looked up): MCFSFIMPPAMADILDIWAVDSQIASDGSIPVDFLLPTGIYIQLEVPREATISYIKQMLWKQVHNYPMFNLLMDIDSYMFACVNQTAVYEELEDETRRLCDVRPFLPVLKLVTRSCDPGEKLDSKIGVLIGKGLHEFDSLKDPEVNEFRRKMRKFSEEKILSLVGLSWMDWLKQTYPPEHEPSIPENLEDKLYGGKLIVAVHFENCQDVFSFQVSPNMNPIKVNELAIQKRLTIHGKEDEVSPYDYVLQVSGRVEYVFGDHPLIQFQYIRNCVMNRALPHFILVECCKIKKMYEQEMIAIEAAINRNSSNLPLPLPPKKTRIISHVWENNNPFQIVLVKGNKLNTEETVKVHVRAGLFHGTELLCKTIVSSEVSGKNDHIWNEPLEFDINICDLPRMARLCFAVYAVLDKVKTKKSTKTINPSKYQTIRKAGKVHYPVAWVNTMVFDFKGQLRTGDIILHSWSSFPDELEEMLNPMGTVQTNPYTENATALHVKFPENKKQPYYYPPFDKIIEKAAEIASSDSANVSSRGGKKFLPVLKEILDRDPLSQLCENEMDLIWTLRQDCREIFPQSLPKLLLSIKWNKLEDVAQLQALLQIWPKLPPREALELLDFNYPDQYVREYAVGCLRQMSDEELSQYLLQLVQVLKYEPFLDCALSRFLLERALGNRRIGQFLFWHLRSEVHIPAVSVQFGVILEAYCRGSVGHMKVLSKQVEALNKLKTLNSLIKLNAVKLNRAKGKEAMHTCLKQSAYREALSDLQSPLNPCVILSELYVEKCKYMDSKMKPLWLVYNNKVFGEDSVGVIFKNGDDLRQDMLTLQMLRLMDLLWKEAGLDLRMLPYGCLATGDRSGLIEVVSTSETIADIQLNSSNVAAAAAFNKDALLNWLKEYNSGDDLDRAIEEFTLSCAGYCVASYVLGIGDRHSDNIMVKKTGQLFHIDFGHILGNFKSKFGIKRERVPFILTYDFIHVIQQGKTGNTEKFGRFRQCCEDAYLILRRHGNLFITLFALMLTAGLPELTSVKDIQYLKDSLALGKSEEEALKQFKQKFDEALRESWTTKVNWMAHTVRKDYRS
Chain of PIK3CA (human) (P42336 whole entry, looked up): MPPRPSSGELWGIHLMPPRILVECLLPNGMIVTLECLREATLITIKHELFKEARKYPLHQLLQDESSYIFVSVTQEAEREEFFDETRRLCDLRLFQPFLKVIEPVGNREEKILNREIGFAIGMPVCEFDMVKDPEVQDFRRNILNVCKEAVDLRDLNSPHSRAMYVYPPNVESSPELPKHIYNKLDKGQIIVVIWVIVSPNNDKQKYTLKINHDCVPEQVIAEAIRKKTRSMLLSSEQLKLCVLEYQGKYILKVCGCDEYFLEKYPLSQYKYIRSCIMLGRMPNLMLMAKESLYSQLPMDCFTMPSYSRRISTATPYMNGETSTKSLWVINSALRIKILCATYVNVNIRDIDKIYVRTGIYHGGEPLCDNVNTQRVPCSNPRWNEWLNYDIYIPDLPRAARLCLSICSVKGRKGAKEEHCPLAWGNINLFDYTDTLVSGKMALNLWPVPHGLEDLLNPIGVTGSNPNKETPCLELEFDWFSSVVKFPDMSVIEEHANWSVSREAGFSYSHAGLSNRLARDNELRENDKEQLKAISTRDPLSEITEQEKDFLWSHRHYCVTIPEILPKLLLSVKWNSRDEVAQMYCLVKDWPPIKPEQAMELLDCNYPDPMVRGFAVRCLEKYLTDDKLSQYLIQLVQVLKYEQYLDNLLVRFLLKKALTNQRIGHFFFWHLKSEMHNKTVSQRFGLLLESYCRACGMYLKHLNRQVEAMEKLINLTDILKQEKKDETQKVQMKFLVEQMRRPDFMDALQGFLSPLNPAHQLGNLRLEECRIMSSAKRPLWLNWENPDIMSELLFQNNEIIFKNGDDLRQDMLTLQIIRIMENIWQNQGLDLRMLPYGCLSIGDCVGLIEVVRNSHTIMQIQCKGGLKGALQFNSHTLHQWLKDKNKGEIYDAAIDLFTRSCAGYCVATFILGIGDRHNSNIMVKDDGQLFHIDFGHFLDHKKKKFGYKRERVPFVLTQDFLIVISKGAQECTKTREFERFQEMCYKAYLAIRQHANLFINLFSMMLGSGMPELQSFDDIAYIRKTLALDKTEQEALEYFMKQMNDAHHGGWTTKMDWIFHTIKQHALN

| Structure (SMILES) | IC50 (PIK3CA (human)) [µM] | IC50 (PIK3CB (Human)) [µM] | IC50 (PIK3CD (Human)) [nM] |
| --- | --- | --- | --- |
| Cc1ccccc1-n1c(Cn2nc(I)c3c(N)ncnc32)cc2cccc(F)c2c1=O | > 10 | > 10 | 100 to 1000 |
| Cc1cccc2cc([C@H](C)Nc3ncnc4[nH]cc(C#N)c34)n(C3CC3)c(=O)c12 | 0.1 to 1 | < 0.1 | < 100 |
| Cc1cccc2cc([C@H](C)Nc3ncnc4[nH]cc(C(N)=O)c34)n(-c3ccccc3)c(=O)c12 | 0.1 to 1 | < 0.1 | < 100 |
| Cc1cccc2cc([C@H](C)Nc3ncnc4[nH]cc(C(N)=O)c34)n(C3CC3)c(=O)c12 | 0.1 to 1 | < 0.1 | < 100 |
| Cc1cccc2cc(C(C)Nc3nc(O)ncc3N)n(-c3ccccc3)c(=O)c12 (stereo not drawn) | > 10 | > 10 | > 10000 |
| Cc1ccccc1-n1c(Cn2nc(C#C[C@@H](C)O)c3c(N)ncnc32)cc2cccc(F)c2c1=O | > 10 | > 10 | 100 to 1000 |
| CCC(Nc1ncnc2[nH]cnc12)c1cc2cccc(C)c2c(=O)n1-c1cc(F)cc(F)c1 (stereo not drawn) | > 10 | > 10 | < 100 |
| Cc1cccnc1-n1c(Cn2nc(C#C[C@@H](C)O)c3c(N)ncnc32)cc2cccc(C)c2c1=O | > 10 | > 10 | 100 to 1000 |
| Cc1cccc2cc(Cn3nc(-c4ccn[nH]4)c4c(N)ncnc43)n(-c3ccccc3F)c(=O)c12 | > 10 | > 10 | 100 to 1000 |
| Cc1cccc2cc(Cn3nc(-c4ccc5oc(N)nc5c4)c4c(N)ncnc43)n(C3CC3)c(=O)c12 | < 0.1 | 0.1 to 1 | < 100 |
| Cc1cccc2cc(C(C)Nc3nc(Cl)ncc3N)n(-c3ccccc3)c(=O)c12 (stereo not drawn) | > 10 | > 10 | > 10000 |
| Cc1cccc2cc([C@H](C)Nc3ncnc4[nH]c(Cl)nc34)n(C3CC3)c(=O)c12 | > 10 | > 10 | > 10000 |
| Cc1cccc2cc([C@H](C)Nc3cc(N)nc(Cl)n3)n(C3CC3)c(=O)c12 | > 10 | > 10 | > 10000 |
| CCC(Nc1ncnc2[nH]cnc12)c1cc2ccccc2c(=O)n1-c1ccccc1 (stereo not drawn) | > 10 | > 10 | < 100 |
| COc1cc(F)cc(-c2nn(Cc3cc4cccc(C)c4c(=O)n3-c3ccccc3C)c3ncnc(N)c23)c1 | > 10 | > 10 | 100 to 1000 |
| Cc1cccc2cc(Cn3nc(-c4ccc5oc(N)nc5c4)c4c(N)ncnc43)n(C3CCC3)c(=O)c12 | 0.1 to 1 | 0.1 to 1 | < 100 |
| Cc1cccc2cc([C@H](C)NC3CCOCC3)n(-c3ccccc3)c(=O)c12 | > 10 | > 10 | > 10000 |
| Cc1cccc2cc(Cn3nc(-c4ccc(O)c(Cl)c4)c4c(N)ncnc43)n(-c3ccccc3F)c(=O)c12 | > 10 | > 10 | 100 to 1000 |
| COc1cc(-c2nn(Cc3cc4cccc(C)c4c(=O)n3-c3ccccc3C)c3ncnc(N)c23)ccc1Cl | > 10 | > 10 | 100 to 1000 |
| Cc1ccccc1-n1c(Cn2nc(-c3cn[nH]c3)c3c(N)ncnc32)cc2ccccc2c1=O | > 10 | > 10 | 100 to 1000 |
| Cc1cccc2cc([C@H](C)Nc3ncnc4[nH]cc(Br)c34)n(C3CC3)c(=O)c12 | 0.1 to 1 | < 0.1 | < 100 |
| CCc1nn(Cc2cc3cccc(C)c3c(=O)n2-c2ccccc2C)c2ncnc(N)c12 | > 10 | > 10 | < 100 |
| Cc1ccccc1-n1c(Cn2nc(-c3ccc(O)cc3)c3c(N)ncnc32)cc2cccc(C)c2c1=O | > 10 | > 10 | 100 to 1000 |
| Cc1ccccc1-n1c(Cn2nc(CF)c3c(N)ncnc32)cc2cccc(C)c2c1=O | – | > 10 | < 100 |
| Cc1cccc2cc(Cn3nc(CF)c4c(N)ncnc43)n(-c3ccccc3)c(=O)c12 | – | > 10 | < 100 |
